Results taken from US9649324B2, “Use of tylvalosin as antiviral agent” (ECO ANIMAL HEALTH LIMITED, priority 2006, dated 2017).

What was measured:
influenza strain Udorn = assay: Influenza virus time course in MDCK cells, immunofluorescence and plaque assay (Example 12); assay type: cell-based
[1] = test system: equine influenza strain Miami; assay type: cell-based; details: 1 μg/ml, 4 h pretreatment, moi 10, fixed 4 h post infection
[2] = test system: VR2332 (US strain of PRRSV); assay: VR2332 (US strain of PRRSV) entry assay in MA104 cells (Example 10); details: 4 h pretreatment, moi 10, overnight
pig white blood cells = assay: Intracellular accumulation in pig white blood cells; assay type: in vitro ADME
Procedure: (§1) Pig blood was collected in Heparin-coated BD vacutainers (6). 20 mL of blood and 30 mL of phosphate buffered saline (PBS) were mixed in a 50 mL conical centrifuge tube. This was repeated in order to obtain 3 such tubes. The mixtures were centrifuged for 10 min at 2050×g. The white blood cells, together with some red blood cells below, were harvested into a 50 mL conical centrifuge tube. PBS was added to about 50 mL. A 63% solution of Percoll was made as follows: 6.3 mL Percoll (Sigma), 1.0 mL 1.5 M NaCl, 2.7 mL H2O. 10 mL of 63% Percoll was added to each of two 50 mL conical centrifuge tubes. 25 mL of the resuspended white blood cells were carefully layered on top of the each of the Percoll solutions. A sharp interface was produced. The material was centrifuged at 3000×g for 10 min. […] The white blood cells were harvested in PBS (50 mL) and centrifuged at 500×g for 10 min. The cell pellet was resuspended in medium (Glasgow minimum essential medium containing penicillin and streptomycin). A viable cell count was made using trypan blue. The same method used for isolation of pig WBCs was used for the chicken WBCs, with the exception that heparin (100 I.U./mL) was prepared and mixed with an equal volume of chicken whole blood.
Cells were incubated with 10 mg/mL of each antibiotic. All tubes were placed on a rotary mixing machine, at 37° C. Supernatant and cell samples were harvested at the times described in the figure legends. Duplicate samples were used for each antibiotic for each time point.
(§2) All the supernatant and cell samples were transported frozen (at approximately −20° C.) to York Bioanalytical Solutions (York, England) for analysis. Briefly, 0.25 g of buffer (RPMI medium containing 10% FCS) was weighed into a polypropylene tube. A 50 μL volume of the appropriate working solution was added to the quality control (QC) samples. Methanol (50 μL) was added to each blank sample used for preparation of calibration standards, recovery samples and reagent blanks. A 2.5 mL volume of 0.1 M phosphate buffer was added to each sample, vortex mixed for approximately 1 min and then centrifuged at 3220×g for 10 min at 4° C.
(§3) For the liquid-liquid clean-up phase, an aliquot (100 μL) of the supernatant was transferred to a polypropylene tube. The pH was adjusted to pH 8-8.5 by the addition of 0.1 M NaOH, and vortex mixed. Ethyl acetate (5 mL) was added and after capping, the whole mixture was shaken for 10 min and then centrifuged at 3220×g for 10 min at 4° C.
(§4) Ammonium acetate (20 mM; pH native)—formic acid, 1000:3, v/v (100 μL) was added to each well in a 2 mL polypropylene collection plate. An aliquot of the ethyl acetate mixture (100 μL) was transferred to the polypropylene collection plate and evaporated under nitrogen (40° C.) until the ethyl acetate was fully evaporated whilst the ammonium acetate remained. Methanol (100 μL) was added to each well, excluding the calibration standards.
(§5) To each well containing a calibration standard, 100 μL of the appropriate calibration working solution was added. Samples were then vortex mixed for at least 10 min and submitted for liquid chromatography with tandem mass spectrometric analysis. The method stated was applicable to the samples of media (and the calibration standards and quality control samples).
(§6) For the cells, the sample tubes were weighed, and 100 μL of acetonitrile was added. The samples were vortex mixed for 10 sec, then centrifuged at 10285×g at 4° C. for 5 min. The sample was transferred to a polypropylene tube. The original sample tube was washed with 0.1 M phosphate buffer (1 mL). This was transferred to the polypropylene tube. A second wash of 1 mL was made, then a final wash of 0.5 mL. The polypropylene tube was now at the same stage as the end of the liquid extraction, but with the cells present rather than media. This was then taken through the sample preparation as described above. […]

[3] = previous study (Tsuchiya et al., 1981); cited from earlier work
[4] = test system: chicken white blood cells; assay: Intracellular accumulation in chicken white blood cells; assay type: in vitro ADME; details: chicken white blood cells
Procedure: as §1
All tubes were placed on a rotary mixing machine, at 37° C. Supernatant and cell samples were harvested at the times described in the figure legends. Duplicate samples were used for each antibiotic for each time point.
as §2, §3, §4, §5, §6

In the case of `CCC1OC(=O)CC(OC(C)=O)C(C)C(OC2OC(C)C(OC3CC(C)(O)C(OC(=O)CC(C)C)C(C)O3)C(N(C)C)C2O)C(CC=O)CC(C)C(=O)C=CC(C)=CC1COC1OC(C)C(O)C(OC)C1OC` (centres unmarked) [tylvalosin, 3-O acetyl-4″-O-isovaleryltylosin], the “influenza strain Udorn infection over the 24 hour period (immunofluorescence and plaque assay)” value (influenza strain Udorn) is reported as “inhibited”, the “inhibition of infection of MDCK cells” value [1] is reported as 92% and the “inhibition of VR2332 infection” value [2] is reported as “sensitive”. For the same molecule, the average intracellular concentration (pig white blood cells; 10 min) was 57.4 μg/mg cells, the “average intracellular:extracellular ratio (IC:EC)” value (pig white blood cells; 10 min) was 8.68 and the “average intracellular:extracellular ratio (IC:EC)” value (pig white blood cells; 10 min, listed as Tylvalosin) was 9. The intracellular concentration (pig white blood cells; 20 min) was 61.45 μg/mg cells, the lipophilicity [3] was “more lipophilic than either tylosin or 3AT” and the average intracellular concentration ([4]; 10 μg/mL, 15 min) was 89.8 μg/mg cells. The intracellular concentration ([4]; 10 μg/mL, 60 min) was 122.9 μg/mg cells and the “intracellular:extracellular ratio” value ([4]; 60 min) was 19 fold.
